# Test results taken from PubChem BioAssay (NCI).
#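 Exposure lasted 48 hours, with cells grown in 96-well plates and compounds tested at five concentrations. At the TGI there is no net growth.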
# What was measured:
# Assay in all cases: growth of human tumour cells (NCI), 48 h
# 786-0 renal = system: 786-0 renal
# A498 renal = system: A498 renal
# A549 NSCLC = system: A549 NSCLC
# ACHN renal = system: ACHN renal
# CAKI-1 renal = system: CAKI-1 renal
# CCRF-CEM leukemia = system: CCRF-CEM leukemia
# COLO 205 colon = system: COLO 205 colon
# DLD-1 colon = system: DLD-1 colon
# DMS 114 small cell lung = system: DMS 114 small cell lung
# DMS 273 small cell lung = system: DMS 273 small cell lung
# HCC-2998 colon = system: HCC-2998 colon
# HCT-116 colon = system: HCT-116 colon
# HCT-15 colon = system: HCT-15 colon
# HL-60(TB) leukemia = system: HL-60(TB) leukemia
# HOP-18 NSCLC = system: HOP-18 NSCLC
# HOP-62 NSCLC = system: HOP-62 NSCLC
# HOP-92 NSCLC = system: HOP-92 NSCLC
# HT29 colon = system: HT29 colon
# IGROV1 ovarian = system: IGROV1 ovarian
# K-562 leukemia = system: K-562 leukemia
# KM12 colon = system: KM12 colon
# KM20L2 colon = system: KM20L2 colon
# LOX IMVI melanoma = system: LOX IMVI melanoma
# M14 melanoma = system: M14 melanoma
# M19-MEL melanoma = system: M19-MEL melanoma
# MALME-3M melanoma = system: MALME-3M melanoma
# MOLT-4 leukemia = system: MOLT-4 leukemia
# NCI-H226 lung = system: NCI-H226 lung
# NCI-H23 lung = system: NCI-H23 lung
# NCI-H460 lung = system: NCI-H460 lung
# NCI-H522 lung = system: NCI-H522 lung
# OVCAR-3 ovarian = system: OVCAR-3 ovarian
# OVCAR-8 ovarian = system: OVCAR-8 ovarian
# RPMI-8226 leukemia = system: RPMI-8226 leukemia
# RXF 393 renal = system: RXF 393 renal
# SF-268 CNS = system: SF-268 CNS
# SF-295 CNS = system: SF-295 CNS
# SF-539 CNS = system: SF-539 CNS
# SK-MEL-2 melanoma = system: SK-MEL-2 melanoma
# SK-MEL-28 melanoma = system: SK-MEL-28 melanoma
# SK-MEL-5 melanoma = system: SK-MEL-5 melanoma
# SK-OV-3 ovarian = system: SK-OV-3 ovarian
# SN12C renal = system: SN12C renal
# SNB-19 CNS = system: SNB-19 CNS
# SNB-75 CNS = system: SNB-75 CNS
# SW-620 colon = system: SW-620 colon
# TK-10 renal = system: TK-10 renal
# U251 CNS = system: U251 CNS
# UACC-257 melanoma = system: UACC-257 melanoma
# UACC-62 melanoma = system: UACC-62 melanoma
# UO-31 renal = system: UO-31 renal
# XF 498 CNS = system: XF 498 CNS
compound,measurement,setting,value
COc1ccc([Se]c2ccc(OC)cc2)cc1,TGI,786-0 renal,> 100 µM
same,TGI,A498 renal,> 100 µM
same,TGI,A549 NSCLC,> 100 µM
same,TGI,ACHN renal,> 100 µM
same,TGI,CAKI-1 renal,> 100 µM
same,TGI,CCRF-CEM leukemia,> 100 µM
same,TGI,COLO 205 colon,> 100 µM
same,TGI,DLD-1 colon,> 100 µM
same,TGI,DMS 114 small cell lung,> 100 µM
same,TGI,DMS 273 small cell lung,> 100 µM
same,TGI,HCC-2998 colon,> 100 µM
same,TGI,HCT-116 colon,> 100 µM
same,TGI,HCT-15 colon,> 100 µM
same,TGI,HL-60(TB) leukemia,> 100 µM
same,TGI,HOP-18 NSCLC,> 100 µM
same,TGI,HOP-62 NSCLC,> 100 µM
same,TGI,HOP-92 NSCLC,98.7 µM
same,TGI,HT29 colon,> 100 µM
same,TGI,IGROV1 ovarian,> 100 µM
same,TGI,K-562 leukemia,> 100 µM
same,TGI,KM12 colon,> 100 µM
same,TGI,KM20L2 colon,> 100 µM
same,TGI,LOX IMVI melanoma,> 100 µM
same,TGI,M14 melanoma,> 100 µM
same,TGI,M19-MEL melanoma,> 100 µM
same,TGI,MALME-3M melanoma,> 100 µM
same,TGI,MOLT-4 leukemia,> 100 µM
same,TGI,NCI-H226 lung,93.5 µM
same,TGI,NCI-H23 lung,> 100 µM
same,TGI,NCI-H460 lung,> 100 µM
same,TGI,NCI-H522 lung,> 100 µM
same,TGI,OVCAR-3 ovarian,> 100 µM
same,TGI,OVCAR-8 ovarian,> 100 µM
same,TGI,RPMI-8226 leukemia,> 100 µM
same,TGI,RXF 393 renal,> 100 µM
same,TGI,SF-268 CNS,> 100 µM
same,TGI,SF-295 CNS,> 100 µM
same,TGI,SF-539 CNS,> 100 µM
same,TGI,SK-MEL-2 melanoma,> 100 µM
same,TGI,SK-MEL-28 melanoma,> 100 µM
same,TGI,SK-MEL-5 melanoma,> 100 µM
same,TGI,SK-OV-3 ovarian,> 100 µM
same,TGI,SN12C renal,> 100 µM
same,TGI,SNB-19 CNS,> 100 µM
same,TGI,SNB-75 CNS,96.8 µM
same,TGI,SW-620 colon,> 100 µM
same,TGI,TK-10 renal,> 100 µM
same,TGI,U251 CNS,> 100 µM
same,TGI,UACC-257 melanoma,> 100 µM
same,TGI,UACC-62 melanoma,> 100 µM
same,TGI,UO-31 renal,9.8 µM
same,TGI,XF 498 CNS,> 100 µM
